Measured values reported in patent publication US20100204134A1, “USE OF THE PEPTIDE HIS-SER-LEU-GLY-LYS-TRP-LEU-GLY-HIS-PRO-ASP-LYS-PHE ALONE OR IN COMBINATION WITH THE PEPTIDE GLY-ARD-GLY-ASP-ASN-PRO-OH AS A THERAPEUTIC AGENT” (priority 2007, published 2010).
No end group written: not given here.

Legend:
HIV-1IIIB = test: HIV-1 antiviral assay in CEM-SS cells; assay type: cell-based
HCMV strain AD169 = test: HCMV plaque formation assay; conditions: MRC-5 cells; for inhibition of HCMV plaque formation as compared to the virus control: 10 micrograms per ml, 7-10 days
murine spleen cells = test: Th1/Th2 cytokine profiling assay; conditions: 10 micrograms per ml; Ovalbumin restimulation; 72 hours
Description: The Balb/c mice (originated in 1923, it is a popular strain and is used in many different research disciplines. Also classified as an inbred from the production of 20 or more successive brother-sister matings, the Balb/c mouse is albino and small in size) were immunized on Days 1, 15, and 29 with Ovalbumin (Ovalbumin is the main protein found in egg white, commonly used to stimulate an immunological reaction in test animals) in PBS (5 micrograms/injection). On day 50, spleens of the mice were harvested (3 weeks after last boost with Ovalbumin). […] Thereafter, additional Ovalbumin was added to the cells at 10 micrograms/ml for in vitro restimulation of the cells. 72 hours later, cell supernatants were harvested and assayed using the Becton Dickinson Mouse Th1/Th2 Cytokine CBA Kit. This kit can be used to measure Interleukin-2 (IL-2), Interleukin-4 (IL-4), Interleukin-5 (IL-5), Interferon-γ (IFN-γ), and Tumor Necrosis Factor-α (TNF-α) protein levels in a single sample.

HUVEC = test: Endothelial tube formation assay; conditions: 10 micrograms per ml; 20 hours
Protocol: The endothelial tube formation assay is based on the ability of endothelial cells to form three-dimensional capillary-like tubular structures when cultured on a gel of basement membrane extract. […] Pre-labeled HUVEC with Calcein AM were seeded in a 96-well culture plate coated with extracellular metrix (Chemicon international Cat. ECM625) and treated with test peptides—10 micrograms per ml—in full growth medium. Positive control was vehicle only. The endothelial cells were allowed to form tubes for 20 hours and were then examined under an inverted fluorescent microscope. Duplicate wells for each treatment were photographed and quantitatively analyzed for an average tubule length using image analysis software ImageProPlus. Raw data were expressed as average tubule lengths in pixels ±standard deviation. Statistic p values were computed using the Student's t-test.

[1] = test system: hepatitis B virus (HBV) ayw strain; test: HBV experimental assay system (secreted HBV DNA, TaqMan PCR); assay type: cell-based; conditions: 10 micrograms per ml; HepG2-2.2.15; six days; HBV DNA in supernatant
Streptococcus pneumoniae = Streptococcus pneumoniae assay; conditions: 10 micrograms per ml; 5×10^5 CFU/mL
[2] = test system: Primary Human endothelial cells (HUVEC); test: Endothelial cell migration assay; assay type: cell-based; conditions: 10 micrograms per ml; 22 hours
Protocol: Primary Human endothelial cells (HUVEC) were seeded in insert chambers with 3 micrometer pore size of multi-transwell plate for 6 hours at 37° C. in Endothelial Cell Basal Medium (EBM) supplemented with 0.1% bovine serum albumin. Thereafter, designated concentration of test peptides—10 micrograms per ml—was added in duplicate wells. The endothelia were allowed to migrate for 22 hours at 37° C., then, migrated cells were fixed and stained with Hoechst 33342 dye. Images of 3 fields per insert were taken and the number of migrated cells per field were quantified using the ImageProPlus software. Data were analyzed for the average number of the migrated cells and standard deviation of six data points for each treatment condition. […] Statistic p values were computed using the Student's t-test.

Compound	antiviral activity of positive control compounds (HIV-1IIIB)	change of the production of IFN-γ (murine spleen cells)	change of the production of IL-5 (murine spleen cells)	induction of the production of IL-2 (murine spleen cells)	induction of the production of IL-4 (murine spleen cells)	induction of the production of TNF-alpha (murine spleen cells)	inhibition of the growth of Streptococcus pneumoniae (Streptococcus pneumoniae)	inhibition of HCMV plaque formation as compared to the virus control (HCMV strain AD169)	further results
Cc1cn([C@H]2C[C@H](N=[N+]=[N-])[C@@H](CO)O2)c(=O)[nH]c1=O [AZT]	expected levels of antiviral activity								
Nc1nc(O)c2ncn(COC(CO)CO)c2n1 [Ganciclovir, reference compound]									antiviral activity of positive control compound (HCMV strain AD169; positive control, HCMV): expected levels of antiviral activity
CC(C)(C)NC(=O)[C@@H]1CN(Cc2cccnc2)CCN1C[C@@H](O)C[C@@H](Cc1ccccc1)C(=O)N[C@H]1c2ccccc2C[C@H]1O [indinavir]	expected levels of antiviral activity								
Gly-Arg-Gly-Asp-Asn-Pro-OH (GRGDNP-OH) [Peptide 2]		did not significantly change	did not significantly change	58.8%	55.6%	23.7%	100%	did not inhibit	increase of the tube formation of endothelial cells (HUVEC): 6%; inhibition of HBV replication as compared to the virus control infection [1]: 36.4%
His-Ser-Leu-Gly-Lys-Trp-Leu-Gly-His-Pro-Asp-Lys-Phe (HSLGKWLGHPDKF; printed: His-Ser-Leu-Gly-Lys-Trp-Leu-Gly-His-Pro-Asp-Lys-Phe) [Peptide 1]		did not significantly change	did not significantly change	106.5%	117.8%	21.2%	100%	did not inhibit	inhibition of the tube formation of human endothelial cells (HUVEC): 10%; inhibition of the migration of human endothelial cells [2]: 12%
